Experimental data reported in publication PMC7113773 (Antiviral Research, 2014).

How the values were obtained:
CoxB = assay: MTT-based antiviral assay, CoxB in HeLa cells; type: cell-based, Coxsackie B virus; conditions: maximum concentration of 100 μM, data not shown
[1] = system: PR8 virus NP and HA protein; type: cell-based, influenza A virus; conditions: 11, 33 and 100 μM, 24 h at 35 °C
PR8 virus [2] = type: cell-based, influenza A virus
[3] = system: wild-type NA derived from influenza H1N1 (A/California/04/2009); type: biochemical
PR8 virus [4] = type: cell-based, influenza A virus; remark: listed apart in the source
[5] = target: PR8-derived viral RNA polymerase (Influenza A virus, UniProt P03428+P03431+P03433); type: cell-based; conditions: 11, 33 and 100 μM, Vero cells, FLuc normalized against RLuc, day 1
FECV = assay: MTT-based antiviral assay, FECV in CrFK cells; type: cell-based, feline coronavirus; conditions: maximum concentration of 100 μM, data not shown
HIV = assay: MTT-based antiviral assay, HIV in MT-4 cells; type: cell-based, human immunodeficiency virus; conditions: maximum concentration of 100 μM, data not shown
HSV = assay: MTT-based antiviral assay, HSV in Vero cells; type: cell-based, herpes simplex virus; conditions: maximum concentration of 100 μM, data not shown
[6] = system: influenza A/H1N1, A/H3N2 and B viruses; assay: CPE reduction assay / screen, stated for the three influenza viruses together; type: cell-based; conditions: for anti-influenza activity: even at 100 μM
PR8 NA = PR8 NA (Influenza A virus, UniProt P03468); assay: biochemical
in vitro = conditions: dog
A/Hong Kong/8/68 (H3N2) = assay: organism not typed; type: cell-based, influenza A virus; conditions: for EC50: MDCK, 72 h, read-out: EC50 for influenza virus A/Hong Kong/8/68
[7] = system: pore-forming glycoprotein perforin; conditions: previous study, ref Lena et al., 2008; cited from earlier work
[8] = system: A/Puerto Rico/8/34 (H1N1; PR8); assay: organism not typed; type: cell-based, influenza A virus; conditions: for EC50: MDCK, 72 h, read-out: EC50 for influenza virus A/Puerto Rico/8/34
B/Lee/40 = type: cell-based, influenza B virus
PR8 virus entry = assay: Confocal microscopy of viral NP; conditions: 100 μM, MOI 2.5, 2 h at 37 °C, MDCK cells
PR8 virus [9] = type: cell-based, influenza A virus; remark: listed apart in the source

Sequence of PR8 NA (P03468 whole entry, looked up): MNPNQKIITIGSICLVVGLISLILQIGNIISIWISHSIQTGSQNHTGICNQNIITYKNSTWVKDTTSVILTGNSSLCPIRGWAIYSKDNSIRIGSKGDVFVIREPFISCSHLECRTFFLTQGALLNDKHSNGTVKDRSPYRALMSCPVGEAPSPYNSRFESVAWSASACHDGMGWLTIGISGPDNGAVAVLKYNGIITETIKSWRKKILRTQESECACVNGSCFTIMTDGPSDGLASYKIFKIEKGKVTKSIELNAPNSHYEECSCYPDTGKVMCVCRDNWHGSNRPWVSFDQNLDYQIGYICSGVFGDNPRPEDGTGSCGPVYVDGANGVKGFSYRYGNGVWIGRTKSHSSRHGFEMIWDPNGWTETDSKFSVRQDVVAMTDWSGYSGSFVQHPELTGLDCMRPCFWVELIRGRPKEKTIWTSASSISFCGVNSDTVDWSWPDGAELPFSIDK

Structure (SMILES)	antiviral activity against CoxB (CoxB)	viral protein level (NP, HA) in cells [1]	vRNA levels in culture supernatants (PR8 virus [2])	plaque titer (infectious viral titers) (PR8 virus [4])	viral RNA polymerase function [5]	antiviral activity against FECV (FECV)	antiviral activity against HIV (HIV)	antiviral activity against HSV (HSV)	CC50 (in vitro) [µM]	EC50 (A/Hong Kong/8/68 (H3N2)) [µM]	EC50 [8] [µM]	other results
Cc1cc2c(c(=S)[nH]1)C(=O)O/C2=C\c1c[nH]c2ccc(F)cc12 [Compound 15a, (Z)-1-((5-Fluoro-1H-indol-3-yl)methylene)-6-methyl-4-thioxo-4,5-dihydrofuro[3,4-c]pyridin-3(1H)-one]	no antiviral activity was detected	Reduction of the influenza viral protein level	significantly inhibited	significantly inhibited	not changed	no antiviral activity was detected	no antiviral activity was detected	no antiviral activity was detected	> 900	–	–	function of wild-type NA [3]: suppressed; inhibition at 20 µM ([6]; Influenza A virus, H1N1|H3N2, read-out: virus growth inhibition): > 50%; IC50 (PR8 NA): 0.6 ± 0.1 µM
Cc1cc2c(c(=S)[nH]1)C(=O)O/C2=C\c1cc2ccccc2s1 [Compound 15g, (Z)-1-(Benzo[b]thiophen-2-ylmethylene)-6-methyl-4-thioxo-4,5-dihydrofuro[3,4-c]pyridin-3(1H)-one]	no antiviral activity was detected	Reduction of the influenza viral protein level	significantly inhibited	significantly inhibited	–	no antiviral activity was detected	no antiviral activity was detected	no antiviral activity was detected	> 900	10.5	16.1	S.I. (selectivity index, CC50/EC50), A/Hong Kong/8/68 (A/Hong Kong/8/68 (H3N2)): 10.5 ± 5.0 (>85.7); inhibitory effect on cell lysis induced by perforin [7]: active; S.I. (selectivity index, CC50/EC50), A/Puerto Rico/8/34 [8]: 16.1 ± 6.0 (>55.9); S.I. (selectivity index, CC50/EC50), B/Lee/40 (B/Lee/40): 18.4 ± 12.8 (>48.9)
Cc1cc2c(c(=S)[nH]1)C(=O)O/C2=C\c1c[nH]cn1 [Compound 15o, (Z)-1-((1H-imidazol-4-yl)methylene)-6-methyl-4-thioxo-4,5-dihydrofuro[3,4-c]pyridin-3(1H)-one]	–	–	–	–	–	–	–	–	> 900	> 100	> 100	anti-influenza activity [6]: no anti-influenza activity
Cc1cc2c(c(=S)[nH]1)C(=O)O/C2=C\c1ncc[nH]1 [Compound 15p, (Z)-1-((1H-Imidazol-2-yl)methylene)-6-methyl-4-thioxo-4,5-dihydrofuro[3,4-c]pyridin-3(1H)-one]	–	–	–	–	–	–	–	–	> 900	> 100	> 100	anti-influenza activity [6]: no anti-influenza activity
Cc1cc2c(c(=S)[nH]1)C(=O)O/C2=C\c1cccs1 [Compound 15q, (Z)-6-Methyl-1-(thiophen-2-ylmethylene)-4-thioxo-4,5-dihydrofuro[3,4-c]pyridin-3(1H)-one]	no antiviral activity was detected	Reduction of the influenza viral protein level	significantly inhibited	significantly inhibited	not changed	no antiviral activity was detected	no antiviral activity was detected	no antiviral activity was detected	> 900	6.8	7.5	NP signal, distribution and intensity in cells (PR8 virus entry): not affected; S.I. (selectivity index, CC50/EC50), A/Hong Kong/8/68 (A/Hong Kong/8/68 (H3N2)): 6.8 ± 1.3 (>132.4); inhibitory effect on cell lysis induced by perforin [7]: active; IC50 (PR8 NA): 1.5 ± 0.4 µM; S.I. (selectivity index, CC50/EC50), A/Puerto Rico/8/34 [8]: 7.5 ± 3.2 (>120.0); S.I. (selectivity index, CC50/EC50), B/Lee/40 (B/Lee/40): 7.0 ± 3.8 (>128.6)
NC(=O)c1nc(F)c[nH]c1=O [Compound T-705, 6-flouro-3-hydroxy-2-pyrazinecarboxamide, reference compound]	–	–	–	–	suppressed	–	–	–	> 100	6.5 ± 1.7	4.3 ± 2.4	HA titer (PR8 virus [9]): 8 HAU/50 μl
O=C(O[C@@H]1Cc2c(O)cc(O)cc2O[C@@H]1c1cc(O)c(O)c(O)c1)c1cc(O)c(O)c(O)c1 [EGCG, (−)-epigallocatechin-3-gallate, reference compound]	–	–	–	–	–	–	–	–	–	–	–	NP signal, distribution and intensity in cells (PR8 virus entry): reduced the overall NP signal intensity
CCC(CC)O[C@@H]1C=C(C(=O)O)C[C@H](N)[C@H]1NC(C)=O [Oseltamivir carboxylate, oseltamivir carboxylate, reference compound]	–	–	–	–	–	–	–	–	> 100	< 0.01	0.03 ± 0.01	HA titer (PR8 virus [9]): no detection
